From patent publication US11667656B2, “Crystalline forms of Tenofovir alafenamide” (Apotex Inc., priority 2021, dated 2023)
Structures can show the parent of a compound that is named as a salt.

Columns and labels:
[1] = Wood apparatus, bath 37° C., 900 mL distilled water, 50 rpm, compressed 200-400 mg samples
Procedure: Intrinsic dissolution rate (IDR) measurements were performed using a Wood apparatus (Pharma Test PT-DT8 instrument) having a bath temperature of 37° C. Samples were prepared by compressing 200-400 mg samples at 1.5 metric tons for 1 minute. A dissolution medium consisting of 900 mL distilled water, and rotation speed of 50 rpm, was used for each experiment.

[2] = reported; cited from earlier work
[3] = CDER review, NDA 207561; cited from earlier work
[4] = rats; in comparison to tenofovir alafenamide hemifumarate; CN 105237571 B; cited from earlier work

CC(C)OC(=O)[C@H](C)N[P@](=O)(CO[C@H](C)Cn1cnc2c(N)ncnc21)Oc1ccccc1 [Tenofovir alafenamide fumarate (1:1), Tenofovir alafenamide fumarate]
Intrinsic Dissolution Rate [1]: 0.87 mg min^−1 cm^−2

CC(C)OC(=O)[C@H](C)N[P@](=O)(CO[C@H](C)Cn1cnc2c(N)ncnc21)Oc1ccccc1 [tenofovir alafenamide, L-alanine, N—[(S)-[[(1 R)-2-(6-amino-9H-purin-9-yl)-1-methylethoxy]methyl]phenoxyphosphinyl]-, 1-methylethyl ester]
bioavailability [2]: low

Tenofovir alafenamide succinate [Tenofovir alafenamide succinate (1:1)]
Intrinsic Dissolution Rate [1]: 0.67 mg min^−1 cm^−2

tenofovir alafenamide hemifumarate
Biopharmaceutics Classification System (BCS) class [3]: Class III | solubility [3]: high

tenofovir alafenamide hemisuccinate
absorption (AUC) [4]: higher | maximum plasma concentration (Cmax) [4]: higher
